# Data reported in ChEMBL document CHEMBL1201862, “PubChem BioAssay data set” (2004).
# Where “and” joins values, the source holds several entries; their conditions need not be identical. Equal values may be shown once. Calls of active or inactive are those of the source.
# Columns and labels:
# Estrogen receptor = biological target: T1, Estrogen receptor (Homo sapiens, UniProt P03372); assay: potentiators of ERα–SRC-1 coactivator binding, dose response, biochemical, TR-FRET, ERα LBD (AID 737)
# T1 sequence (P03372 whole entry): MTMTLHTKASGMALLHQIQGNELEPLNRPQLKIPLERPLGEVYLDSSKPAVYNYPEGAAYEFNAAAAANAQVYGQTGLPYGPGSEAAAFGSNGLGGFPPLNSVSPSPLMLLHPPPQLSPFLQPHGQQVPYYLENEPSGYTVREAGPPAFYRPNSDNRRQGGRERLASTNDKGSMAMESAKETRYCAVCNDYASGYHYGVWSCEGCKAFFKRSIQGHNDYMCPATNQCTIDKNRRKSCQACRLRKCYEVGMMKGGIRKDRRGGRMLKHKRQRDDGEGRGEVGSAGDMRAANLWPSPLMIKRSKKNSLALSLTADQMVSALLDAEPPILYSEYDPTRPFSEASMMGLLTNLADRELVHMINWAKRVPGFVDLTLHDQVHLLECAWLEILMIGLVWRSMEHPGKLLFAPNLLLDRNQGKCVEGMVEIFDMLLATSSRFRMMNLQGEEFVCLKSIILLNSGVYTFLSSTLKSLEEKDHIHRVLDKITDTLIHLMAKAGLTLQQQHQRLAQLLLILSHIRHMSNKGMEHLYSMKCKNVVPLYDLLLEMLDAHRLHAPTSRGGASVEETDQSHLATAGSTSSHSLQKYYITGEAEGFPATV
# [1] = NIH-3T3 fibroblast cytotoxicity, dose response, cytotoxicity control, cell-based, fluorescence, Alamar Blue, secondary assay (AID 2327); type: functional;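 further: NIH-3T3 mouse fibroblasts cultured with fluconazole at 8 µg/mL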
# Protein Tat = biological target: T2, Protein Tat (Human immunodeficiency virus type 1 group M subtype B (isolate HXB2)(HIV-1), UniProt P04608); type: functional;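 further: tat binding to TAR RNA read out by fluorescence polarization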
# T2 sequence (P04608 whole entry): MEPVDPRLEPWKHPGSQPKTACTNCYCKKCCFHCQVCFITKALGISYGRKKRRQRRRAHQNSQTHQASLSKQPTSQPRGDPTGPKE
# [2] = THP-1 cell cytotoxicity, dose response, cytotoxicity control for Vif-APOBEC3G degradation inhibitor project, THP-1 cells (AID 1117359); type: functional; conditions: Human immunodeficiency virus 1, THP-1
# [3] = biological target: T3, Mannose-6-phosphate isomerase (Homo sapiens, UniProt P34949); assay: inhibitors of human PMI, primary screen, biochemical, fluorescence intensity, coupled assay (AID 1209)
# T3 sequence (P34949 whole entry): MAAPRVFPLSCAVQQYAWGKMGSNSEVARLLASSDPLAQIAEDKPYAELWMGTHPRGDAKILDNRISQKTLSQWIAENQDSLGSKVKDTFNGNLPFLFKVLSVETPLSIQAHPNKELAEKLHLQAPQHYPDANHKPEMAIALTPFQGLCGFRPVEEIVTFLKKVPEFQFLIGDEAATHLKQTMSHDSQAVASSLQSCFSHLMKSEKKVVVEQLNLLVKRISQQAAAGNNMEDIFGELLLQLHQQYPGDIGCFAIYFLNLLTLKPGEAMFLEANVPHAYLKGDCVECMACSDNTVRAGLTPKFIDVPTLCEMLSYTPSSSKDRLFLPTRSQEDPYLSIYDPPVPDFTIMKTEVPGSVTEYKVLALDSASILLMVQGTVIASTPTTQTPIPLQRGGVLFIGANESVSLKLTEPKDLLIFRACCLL
# [4] = biological target: Potassium voltage-gated channel subfamily KQT member 2 (Rattus norvegicus, UniProt O88943, W236L); assay: KCNQ2 channel potentiators, dose response, mechanism study for KCNQ2 potentiator project, cell-based, automated electrophysiology (AID 2603); type: functional
# [5] = biological target: Sphingosine 1-phosphate receptor 2 (Homo sapiens, UniProt O95136); assay: Dose Response Cell Based Assay for Agonists of the S1P2 Receptor of Purchased Analogues. [Related pubchem assays: 729, 843, 854, 736 ]; type: functional
# Bcl-2-like protein 10 [6] = biological target: T4, Bcl-2-like protein 10 (Homo sapiens, UniProt Q9HD36); assay: Biochemical TR3 FP assay of Bcl-B inhibitor potency, EC50 (AID 1243); type: functional
# T4 sequence (Q9HD36 whole entry): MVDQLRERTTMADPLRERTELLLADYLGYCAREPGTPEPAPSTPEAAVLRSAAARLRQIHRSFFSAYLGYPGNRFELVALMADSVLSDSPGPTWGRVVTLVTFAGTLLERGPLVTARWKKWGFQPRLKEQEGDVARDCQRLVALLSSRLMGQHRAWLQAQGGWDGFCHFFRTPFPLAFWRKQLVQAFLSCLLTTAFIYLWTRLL
# NS3 = NS3 (Hepatitis C virus, UniProt A3EZJ3); assay: HCV NS3 helicase inhibitor potency, dose response, biochemical, fluorescence polarization, ChemBridge library (AID 743264)
# [7] = biological target: T5, Neuropeptide Y receptor type 2 (Homo sapiens, UniProt P49146); assay: NPY-Y2 antagonist potency, selectivity check, dose response, counter-screen for NPY-Y1 antagonist project, cell-based (AID 1278); type: functional
# [8] = biological target: Potassium voltage-gated channel subfamily KQT member 2 (Rattus norvegicus, UniProt O88943); assay: KCNQ2 potassium channel inhibitors, dose response, cell-based, automated electrophysiology, set II, rat KCNQ2 (AID 588637); type: functional
# [9] = biological target: T6, Neuropeptide Y receptor type 1 (Homo sapiens, UniProt P25929); assay: NPY-Y1 receptor antagonist potency, dose response, cell-based (AID 1277); type: functional
# [10] = Luminescence Cell-Based Dose Confirmation HTS to Identify Activators of 5'UTR Stem-Loop Driven Alpha-Synuclein mRNA Translation in H4 Neuroglioblastoma Cells. [Related pubchem assays: 1829 (Project Summary), 1814 (Primary HTS)]; type: functional
# [11] = HEp-2 cell cytotoxicity, dose response, cytotoxicity control for RSV inhibitor project, HTS (AID 2410); type: functional; conditions: human respiratory syncytial virus
# [12] = Luminescence Cell-Based Dose Response HTS to Identify Activators of Luciferase Translation or Activity in H4 […] Cells. [Related pubchem assays: 1829 (Project Summary), 1814 (Primary HTS)]; type: functional
# H4 = assay: Luminescence Cell-Based Dose Response HTS to Identify Activators of 5'UTR Stem-Loop Driven Prion Protein mRNA Translation in H4 Neuroglioblastoma Cells. [Related pubchem assays: 1829 (Project Summary), 1814 (Primary HTS)]; type: functional; conditions: Homo sapiens
# Vero = assay: cells; type: functional, cell-based; conditions: Chlorocebus sabaeus
# [13] = biological target: T5, Neuropeptide Y receptor type 2; type: functional, cell-based
# [14] = biological target: T6, Neuropeptide Y receptor type 1; type: functional
# [15] = biological target: T7, Heat shock 70 kDa protein 1A (Homo sapiens, UniProt P0DMV8); assay: Hsp70 inhibitors, biochemical, TR-FRET (AID 786)
# Bcl-2-like protein 10 [16] = biological target: T4, Bcl-2-like protein 10; assay: displacers of TR3 peptide from Bcl-B, primary screen, selectivity assay for Bfl-1 inhibitor project, biochemical, fluorescence polarization, FITC-TR3 peptide (AID 748);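 further: fluorescence polarization from a fluorescein-labelled TR3 peptide binding purified Bcl-B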
# [17] = biological target: T8, Tyrosine-protein phosphatase non-receptor type 7 (Homo sapiens, UniProt P35236); assay: redox-dependent HePTP inhibition, mechanism study, biochemical, fluorescence (AID 2068); type: functional
# T8 sequence (P35236 whole entry): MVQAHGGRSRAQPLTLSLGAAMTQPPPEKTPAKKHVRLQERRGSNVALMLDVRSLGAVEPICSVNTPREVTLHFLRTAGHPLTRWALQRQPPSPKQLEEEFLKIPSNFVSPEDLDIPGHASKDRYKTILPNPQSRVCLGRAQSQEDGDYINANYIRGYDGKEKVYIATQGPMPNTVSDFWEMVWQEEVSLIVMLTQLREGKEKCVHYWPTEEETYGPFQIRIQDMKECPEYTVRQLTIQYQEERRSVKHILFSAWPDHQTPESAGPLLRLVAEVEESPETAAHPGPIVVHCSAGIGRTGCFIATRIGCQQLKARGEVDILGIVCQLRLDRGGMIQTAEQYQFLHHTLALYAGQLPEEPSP
# [18] = biological target: T7, Heat shock 70 kDa protein 1A; assay: Hsp70 inhibitors, probe displacement, primary screen, biochemical, fluorescence polarization (AID 583)
# Aspartyl aminopeptidase = Aspartyl aminopeptidase (Plasmodium falciparum 3D7, UniProt Q8I2J3); assay: Counterscreen for inhibitors of M1 and M17 aminopeptidases: QFRET-based biochemical high throughput dose response assay for inhibitors of the Plasmodium falciparum M18 Aspartyl Aminopeptidase (PFM18AAP). [Related PubChem assays: 1619 (Screening assay (M17LAP inhibitors).), 1445 (Screening assay (M1AAP inhibitors).)]
# [19] = biological target: T9, Short transient receptor potential channel 4 (Mus musculus, UniProt Q9QUQ5); assay: mouse TRPC4 channel inhibitors, dose response, cell-based, HEK293 TRPC4/mu-opioid, Fluo-4 calcium (AID 434942); type: functional;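 further: potency of inhibitors blocking the TRPC4 calcium response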
# T9 sequence (Q9QUQ5 whole entry): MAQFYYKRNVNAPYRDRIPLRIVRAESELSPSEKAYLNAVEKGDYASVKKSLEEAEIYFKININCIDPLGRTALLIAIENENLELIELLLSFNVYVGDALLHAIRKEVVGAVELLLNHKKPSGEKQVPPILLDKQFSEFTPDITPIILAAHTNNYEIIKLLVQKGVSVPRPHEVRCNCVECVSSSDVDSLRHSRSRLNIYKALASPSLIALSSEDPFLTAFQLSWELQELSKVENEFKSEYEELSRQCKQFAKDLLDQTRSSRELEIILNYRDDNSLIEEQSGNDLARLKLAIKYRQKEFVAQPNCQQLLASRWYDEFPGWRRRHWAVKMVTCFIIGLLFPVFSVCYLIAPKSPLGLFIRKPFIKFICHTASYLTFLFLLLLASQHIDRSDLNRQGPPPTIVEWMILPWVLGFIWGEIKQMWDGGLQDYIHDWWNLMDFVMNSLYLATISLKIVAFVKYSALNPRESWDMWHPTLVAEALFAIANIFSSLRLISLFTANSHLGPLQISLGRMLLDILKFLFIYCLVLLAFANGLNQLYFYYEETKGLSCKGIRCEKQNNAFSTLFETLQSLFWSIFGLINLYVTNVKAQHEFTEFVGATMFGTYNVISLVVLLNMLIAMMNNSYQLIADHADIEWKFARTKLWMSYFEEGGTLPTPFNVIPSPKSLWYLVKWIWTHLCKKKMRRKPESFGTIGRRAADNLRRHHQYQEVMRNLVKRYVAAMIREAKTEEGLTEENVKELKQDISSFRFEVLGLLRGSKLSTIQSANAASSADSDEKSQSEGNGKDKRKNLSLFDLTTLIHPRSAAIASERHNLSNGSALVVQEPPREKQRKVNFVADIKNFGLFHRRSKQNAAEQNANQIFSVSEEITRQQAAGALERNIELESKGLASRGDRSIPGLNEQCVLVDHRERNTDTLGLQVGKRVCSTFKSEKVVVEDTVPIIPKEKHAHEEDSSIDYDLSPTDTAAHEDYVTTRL
# Leucine aminopeptidase = biological target: T10, Leucine aminopeptidase (Plasmodium falciparum 3D7, UniProt Q8IL11); assay: P. falciparum M17LAP inhibitors, primary screen, biochemical, fluorogenic H-Leu-NHMec substrate, 1536-well (AID 1619); type: functional
# T10 sequence (Q8IL11 whole entry): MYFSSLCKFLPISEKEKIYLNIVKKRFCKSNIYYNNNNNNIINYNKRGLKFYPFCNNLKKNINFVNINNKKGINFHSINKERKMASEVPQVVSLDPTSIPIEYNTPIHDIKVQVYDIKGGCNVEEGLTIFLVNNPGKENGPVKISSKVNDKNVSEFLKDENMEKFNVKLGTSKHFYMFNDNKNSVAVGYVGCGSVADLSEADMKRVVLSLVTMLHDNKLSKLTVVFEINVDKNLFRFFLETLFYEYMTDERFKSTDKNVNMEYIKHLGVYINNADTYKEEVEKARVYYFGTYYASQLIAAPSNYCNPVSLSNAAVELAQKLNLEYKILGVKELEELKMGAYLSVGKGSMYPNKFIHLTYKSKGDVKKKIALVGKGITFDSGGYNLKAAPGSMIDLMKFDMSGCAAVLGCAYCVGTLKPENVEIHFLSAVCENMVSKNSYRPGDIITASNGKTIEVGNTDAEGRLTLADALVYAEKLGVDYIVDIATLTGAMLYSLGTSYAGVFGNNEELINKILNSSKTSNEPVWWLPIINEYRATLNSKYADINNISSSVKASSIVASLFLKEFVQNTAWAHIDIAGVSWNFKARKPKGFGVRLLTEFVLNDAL
# Procathepsin L = Procathepsin L (Homo sapiens, UniProt P07711); assay: cathepsin L inhibitors, dose response, counter-screen for M1/M17 aminopeptidase inhibitor project, biochemical, QFRET, 1536-well (AID 2214)
smiles,measurement,setting,value
COc1ccc(C(=O)Nc2nc(O)c3cc(OC)c(OC)cc3n2)cc1,EC50,Estrogen receptor,13.3 µM (not active)
COc1ccc(OC)c(Nc2nc(-c3ccc(O)c(O)c3)cs2)c1,EC50,[1],6.89 µM (active)
same,IC50,Protein Tat,> 100 µM (inconclusive)
same,CC50,[2],9.32 µM (active)
same,IC50,[3],> 50 µM (not active)
CCCCC1CCC(C(=O)NCC(c2ccco2)N2CCOCC2)CC1 (stereo not drawn),EC50,[4],0.92 µM (active)
CC(=O)Nc1ccc(SCC(=O)c2cc(C)n(Cc3ccccc3)c2C)cc1,EC50,[5],> 30 µM (not active)
Cc1ccc(C)n1-c1ccc(OCC(=O)O)cc1,EC50,Bcl-2-like protein 10 [6],8.75 µM (active)
same,IC50,NS3,36 µM (inactive)
CCCCOc1cccc(OCCCC)c1C(=O)Nc1cc(C)on1,IC50,[7],> 35 µM (not active)
same,IC50,[8],4.03 µM (active)
same,IC50,[9],> 35 µM (not active)
O=C(Nc1ccc(N2CCCCC2)c(Cl)c1)c1cccnc1,EC50,[10],> 120 µM (not active)
same,CC50,[11],15.4 µM (active)
same,EC50,[12],6.12 µM (active)
same,EC50,H4,> 120 µM (not active)
same,IC50,cells,13.6 µM (active)
same,IC50,Vero,8.75 µM (active)
COc1ccc(NC(=O)CSc2nc3ccccc3c(=O)n2CCCN2CCCCC2)c(OC)c1,IC50,[13],14.7 µM (not active)
same,IC50,[14],7.62 µM (active)
O=C(Nc1ccc2nc(-c3ccco3)c(-c3ccco3)nc2c1)N1CCCCCC1,IC50,[15],> 100 µM (not active)
same,IC50,Bcl-2-like protein 10 [16],0.725 µM (active)
same,IC50,[17],1.03 µM (active) and 1.85 µM (active)
same,IC50,[18],> 100 µM (not active)
N#Cc1c(NC(=O)C2CC(Cl)=CCC2C(=O)O)sc2c1CCCCC2 (stereo not drawn),IC50,Aspartyl aminopeptidase,> 73.5 µM (not active)
same,EC50,[19],4.73 µM (active)
same,IC50,Leucine aminopeptidase,< 1 µM (active)
same,IC50,Procathepsin L,> 59.6 µM (not active)
